The target in this assay is Protein-arginine deiminase type-4 (Homo sapiens) (UniProt Q9UM07). Kind of assay: human PAD4 inhibitor potency, dose response, biochemical, fluorescence readout (AID 492970). Conditions: recombinant PAD4, BAEE citrulline colorimetric readout.

These results are taken from PubChem BioAssay AID492970 (The Scripps Research Institute Molecular Screening Center, 2010).

Protein-arginine deiminase type-4 (Homo sapiens), sequence (Q9UM07 whole entry, looked up): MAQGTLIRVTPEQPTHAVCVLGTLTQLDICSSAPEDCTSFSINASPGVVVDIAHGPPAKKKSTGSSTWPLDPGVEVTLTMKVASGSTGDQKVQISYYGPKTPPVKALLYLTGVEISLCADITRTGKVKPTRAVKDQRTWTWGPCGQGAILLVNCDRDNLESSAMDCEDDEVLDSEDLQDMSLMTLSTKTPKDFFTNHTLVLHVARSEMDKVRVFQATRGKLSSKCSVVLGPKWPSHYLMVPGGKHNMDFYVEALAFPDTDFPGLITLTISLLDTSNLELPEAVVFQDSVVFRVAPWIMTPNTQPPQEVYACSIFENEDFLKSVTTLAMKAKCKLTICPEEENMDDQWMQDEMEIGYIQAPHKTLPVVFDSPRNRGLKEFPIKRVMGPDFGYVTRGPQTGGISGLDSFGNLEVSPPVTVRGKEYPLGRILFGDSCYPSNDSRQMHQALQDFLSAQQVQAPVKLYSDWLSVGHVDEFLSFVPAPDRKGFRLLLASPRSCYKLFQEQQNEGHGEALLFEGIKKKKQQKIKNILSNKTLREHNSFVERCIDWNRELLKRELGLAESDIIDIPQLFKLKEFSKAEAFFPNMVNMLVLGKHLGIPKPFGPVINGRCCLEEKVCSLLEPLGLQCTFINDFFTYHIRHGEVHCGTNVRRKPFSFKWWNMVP

Regarding `COC1=C(N)C(=O)c2nc(-c3nc(C(=O)O)c(C)c(-c4ccc(OC)c(OC)c4O)c3N)ccc2C1=O`, the IC50 was 2500 nM.

In general, IC50 refers to the midpoint of a concentration-inhibition curve.
